Legend:
[1] = target: T1, human sphingosine-1-phosphate receptor 1 (S1P1) (Homo sapiens (Human), UniProt P21453); experiment: β-Arrestin2 recruitment assay (PathHunter), S1P1 CHO-K1 cells; format: cell-based; conditions: for Emax: CHO-K1, efficacy (SPAN) normalized to fingolimod, read-out: hS1P1 B-arrestin2 SPAN; for hS1P1 B-arrestin2 pEC50: β-arrestin2 recruitment, S1P1 CHO-K1 cells
Method in brief: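 Enzyme-fragment complementation read-out: agonist-driven β-arrestin2 binding to ProLink-tagged human S1P1 in stable CHO-K1 cells restores β-galactosidase, measured 1 h at room temperature after a 60 min 37° C. compound incubation. Potency as pEC50, efficacy relative to fingolimod (SPAN).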
Target sequence in this assay (P21453 whole entry, looked up, the tested form may be a part): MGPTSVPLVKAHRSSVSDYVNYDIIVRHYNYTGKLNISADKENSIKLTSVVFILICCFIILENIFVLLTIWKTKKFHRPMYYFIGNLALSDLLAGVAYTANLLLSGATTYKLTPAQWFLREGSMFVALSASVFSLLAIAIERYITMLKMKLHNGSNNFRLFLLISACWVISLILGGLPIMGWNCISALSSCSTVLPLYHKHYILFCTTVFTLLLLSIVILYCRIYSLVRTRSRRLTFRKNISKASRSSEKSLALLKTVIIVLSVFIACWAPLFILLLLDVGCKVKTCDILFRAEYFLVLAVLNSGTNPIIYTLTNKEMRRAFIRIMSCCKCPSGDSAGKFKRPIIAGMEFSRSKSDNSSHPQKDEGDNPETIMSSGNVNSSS
Target sequence in this assay (P32121 whole entry partner, looked up, the tested form may be a part): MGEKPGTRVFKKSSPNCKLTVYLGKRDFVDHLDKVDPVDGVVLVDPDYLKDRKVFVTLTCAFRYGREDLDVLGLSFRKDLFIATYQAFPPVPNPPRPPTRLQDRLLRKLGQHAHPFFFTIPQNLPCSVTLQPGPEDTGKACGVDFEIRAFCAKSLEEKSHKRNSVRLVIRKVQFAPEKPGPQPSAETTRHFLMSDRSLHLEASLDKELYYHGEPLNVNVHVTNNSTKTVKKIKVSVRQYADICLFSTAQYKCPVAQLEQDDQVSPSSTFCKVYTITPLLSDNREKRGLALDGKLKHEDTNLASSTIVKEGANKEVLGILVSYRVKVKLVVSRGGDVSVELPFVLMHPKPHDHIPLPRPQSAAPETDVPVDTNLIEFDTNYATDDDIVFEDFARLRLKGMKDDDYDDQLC

[2] = target: T1, human sphingosine-1-phosphate receptor 1 (S1P1); experiment: Inhibition of cAMP production (HTRF cAMP HiRange), S1P1 CHO-K1 cells; format: cell-based; conditions: for Emax: CHO-K1, efficacy (SPAN) normalized to fingolimod, read-out: hS1P1 cAMP SPAN; for hS1P1 cAMP pEC50: inhibition of cAMP production, S1P1 CHO-K1 cells
Method in brief: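 CHO-K1 cells stably co-expressing human S1P1 (C-terminal Prolink tag) and EA-β-arrestin2 were grown in AssayComplete Media 6 at 37° C. and 5% CO2, plated, and incubated overnight. Agonist-driven inhibition of intracellular cAMP was read by TR-FRET with the HTRF cAMP HiRange kit on a PheraStar reader. Potency is pEC50, and efficacy (SPAN) is normalized to fingolimod.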
Target sequence in this assay (P21453 whole entry, looked up, the tested form may be a part): as the sequence (P21453 whole entry, looked up, the tested form may be a part) above

Row | Structure (SMILES) | Emax [1] [%] | hS1P1 B-arrestin2 pEC50 [1] | Emax [2] [%] | hS1P1 cAMP pEC50 [2]
1 | Brc1ccccc1-c1nc(-c2ccc3[nH]nnc3c2)no1 [Compound 97, 3-(1H-benzo[d][1,2,3]triazol-5-yl)-5-(2-bromophenyl)-1,2,4-oxadiazole] | < 75 | <5 | < 75 | <6.5
2 | Brc1ccccc1-c1nc(-c2ccc3c(c2)nnn3CC2CC2)no1 [Compound 98, 5-(2-bromophenyl)-3-(1-(cyclopropylmethyl)-1H-benzo[d][1,2,3]triazol-5-yl)-1,2,4-oxadiazole] | > 75 | >5 | > 75 | <6.5
3 | Cc1ccncc1-c1nc(-c2ccc3c(c2)nnn3C(C)C)no1 [Compound 100, 3-(1-isopropyl-1H-benzo[d][1,2,3]triazol-5-yl)-5-(4-methylpyridin-3-yl)-1,2,4-oxadiazole] | < 75 | <5 | < 75 | <6.5
4 | Cc1ccncc1-c1noc(-c2ccc3c(c2)nnn3C(C)C)n1 [Compound 101, 5-[3-(4-methylpyridin-3-yl)-1,2,4-oxadiazol-5-yl]-1-(propan-2-yl)-1H-1,2,3-benzotriazole] | > 75 | >5 | > 75 | >6.5
5 | O=C1CCOc2ccc(-c3nc(-c4cccnc4)no3)cc21 [Compound 102, 6-[3-(pyridin-3-yl)-1,2,4-oxadiazol-5-yl]-3,4-dihydro-2H-1-benzopyran-4-one] | < 75 | <5 | < 75 | <6.5
6 | CCC1(CC)CC(=O)c2cc(-c3nnc(-c4cccnc4)s3)ccc2O1 [Compound 104, 2,2-diethyl-6-(5-(pyridin-3-yl)-1,3,4-thiadiazol-2-yl)chroman-4-one] | > 75 | <5 | > 75 | >6.5
7 | CCC1(CC)CC(=O)c2cc(-c3nc(-c4ccc(O)nc4)no3)ccc2O1 [Compound 105, 2,2-diethyl-6-[3-(6-hydroxy-3-pyridyl)-1,2,4-oxadiazol-5-yl]chroman-4-one] | < 75 | <5 | < 75 | <6.5
8 | COc1cccc(-c2cnc(-c3ccc4c(c3)nnn4C(C)C)s2)c1 [Compound 108, 2-(1-isopropyl-1H-benzo[d][1,2,3]triazol-5-yl)-5-(3-methoxyphenyl)thiazole] | < 75 | <5 | < 75 | >6.5
9 | COc1ccc(-c2cnc(-c3ccc4c(c3)nnn4C(C)C)s2)cc1 [Compound 109, 2-(1-isopropyl-1H-benzo[d][1,2,3]triazol-5-yl)-5-(4-methoxyphenyl)thiazole] | < 75 | >5 | < 75 | <6.5
10 | CC(C)n1nnc2cc(-c3ncc(-c4cccc(F)c4)s3)ccc21 [Compound 110, 5-(3-fluorophenyl)-2-(1-isopropyl-1H-benzo[d][1,2,3]triazol-5-yl)thiazole] | < 75 | <5 | < 75 | <6.5
11 | CCC1(CC)CC(=O)c2cc(-c3nc(-c4ccccn4)no3)ccc2O1 [Compound 111, 2,2-diethyl-6-[3-(2-pyridyl)-1,2,4-oxadiazol-5-yl]chroman-4-one] | > 75 | <5 | > 75 | <6.5
12 | CC(C)n1nnc2cc(-c3nsc(-c4ccccc4O)n3)ccc21 [Compound 112, 2-{3-[1-(propan-2-yl)-1H-1,2,3-benzotriazol-5-yl]-1,2,4-thiadiazol-5-yl}phenol] | – | >5 | – | >6.5
13 | c1ccc(-c2noc(-c3ccc4[nH]nnc4c3)n2)cc1 [Compound 113, 5-(3-phenyl-1,2,4-oxadiazol-5-yl)-1H-1,2,3-benzotriazole] | – | <5 | – | <6.5
